The test system of this experiment is bovine endothelial cells. It is filed as cell-based. As for the experimental part: In a second example, the effects of angiotensin II on proliferation (mitogenesis) and directional migration (chemotaxis) of endothelial cells were determined. In this regard, it is important to consider that tissue repair requires proper neovascularization, and that new blood vessel growth for wound repair requires endothelial cell replication, migration and orientation. Wound healing factors must be able to stimulate chemotaxis and cell proliferation in addition to initiating new blood vessel growth. The proliferation (mitogenesis) and the directional orientation of such cells (chemotaxis) was studied in vitro using bovine aortal endothelial cells. […] Background radioactivity (noncell-associated) was assessed by removing some filters immediately after the addition of cells prior to cellular migration, and processing these control filters the same way as the test filters. […] The latter was calculated by the following formula: [formula] where R equals the radioactivity in cpm associated with each test filter, B equals the cpm obtained from the background filters, T equals the cpm obtained from a volume (V) of cells in suspension at a known concentration (C) and S equals the cpm obtained from the cell supernate (noncellular, or unbound radioactivity). […]

Take `CC[C@H](C)[C@H](NC(=O)[C@H](Cc1ccc(O)cc1)NC(=O)[C@@H](NC(=O)[C@H](CCCNC(=N)N)NC(=O)[C@@H](N)CC(=O)O)C(C)C)C(=O)N[C@@H](Cc1c[nH]cn1)C(=O)N1CCC[C@H]1C(=O)N[C@@H](Cc1ccccc1)C(=O)O` [angiotensin II]: the ED50 of chemotaxis is 3 nanogram/ml.

The values are drawn from patent US5015629A, “Tissue repair” (University of Southern California, priority 1990, dated 1991).
